“Also recorded” adds a separate entry of the source. Like-named read-outs stand apart in the source and are kept apart here.
Key:
[1] = test system: primary rat SNc neuron cultures; experiment: [3H]Dopamine uptake in primary SNc neuron cultures; format: cell-based; conditions: A9 for six days
Protocol: (§1) Primary cultures of rat embryonic SNc neuron cultures were grown on treated 12-well plates (for dopamine uptake) or coverslips (for neuroprotection) for 10 days as described in the Examples section. In FIG. 6A, the neurons were treated with different concentrations of A9 for 6 days before dopamine uptake was measured. Data=mean±SD (n=3). In FIG. 6B, MPP^+ (25 μM) was added into medium on day 11, while A9 was added either on day 10 (pretreatment) or day 12 (after MPP^+). Half of the medium was changed with fresh A9 on day 14. The neurons were fixed on day 16 and stained for tyrosine hydroxylase (TH, green) and total-ERK (red). Images were captured with fluorescence microscopy at magnification×100.
Dopamine uptake: NS20Y cells or neuron cultures are plated on poly-L-lysine (for NS20Y) or poly-D-lysine (for neuron culture)-coated 24-well plates and grown to confluence. The medium is decanted and cells are prepared for [^3H]dopamine uptake. Cells are incubated in the presence or absence of mazindol (10 μM to determine nonspecific uptake) for at least 10 minutes prior to addition of [^3H]dopamine. The uptake assay (final volume 0.5 ml) is initiated by the addition of 50 nM [^3H]dopamine and 2 μM dopamine in Krebs-HEPES buffer. […] Radioactivity remaining in each well is determined using liquid scintillation spectrometry. […]

[2] = test system: primary dopaminergic neuron cultures; experiment: Neuroprotection against MPP+ in primary dopaminergic neuron cultures; format: cell-based, rat; conditions: MPP+ 25 μM; A9 added before or after MPP+; TH staining
Protocol: as §1, with “6B, MPP^+ (25 μM) was added into medium on day 11, while A9 was added either on day 10 (pretreatment) or day 12 (after MPP^+).” left out
The dopaminergic neurons that have been cultured on poly-D-lysine treated coverslips or 12-well cell culture plates for 10 days are treated with vehicle or A9 at 1 nM, 10 nM, 100 nM, or 1 μM for 7 days. […] Half of the medium is changed with fresh medium containing A9 at day 4. To test the involvement of ERK and PI3K, inhibitors (including PD98059, SL327, wortmannin, and LY294002) are added with A9. […] The amount of HSV used and the best time to do functional assays is determined. To count the TH-positive neurons, the neurons on coverslips are fixed, stained for both tyrosine hydroxylase (TH) and total-ERK (control) at the end of A9 treatment and imaged with a conventional or confocal fluorescence microscope. […]

[3] = Stability of A9 in solution; format: physicochemical
Protocol: (§2) 5. Physical properties: A9 stock can be dissolved in ethanol, methylene chloride, or DMSO as high as 25 mg/ml. The stock of A9 can then be diluted in water or saline. The final concentration in saline can reach 10 mg/ml according to our experience. A9 is very stable in organic solvents and keeps its activity (indicated by its ability to stimulate ERK activation in NS20Y cells, data not shown) for 6 months at room temperature. […] In saline, its half-life was reported to be 4 days at 37° C. (Golumb, Atherosclerosis 125:171-182, 1996). […] A similar evaluation of the chemical nature of any tyrphostin can be used to determine if it is of use to induce neurite outgrowth and regeneration in a subject.

Solubility of A9 stock = format: physicochemical
Protocol: as §2

ERK = ERK activation in HEK293 cells; format: cell-based, human
Protocol: Cell stimulation, immunoblotting, and immunoprecipitation: Cells or neurons are grown in 6-well or 12-well plates to 80-90% confluence. The cells are starved in serum-free DMEM overnight, and then incubated with receptor agonists at 37° C. for the indicated durations. In some experiments, signaling inhibitors are added 45 minutes before simulation. Incubation is terminated by placing the tissue culture cluster on ice and rapidly aspirating the medium, followed by the addition of ice-cold RIPA^+ buffer (50 mM Tris-HCl, pH 7.5, 150 mM NaCl, 1% NP-40, 0.5% deoxycholate, 0.1% SDS, 1 mM NaVO3, and protease inhibitor (Calbiochem, San Diego, Calif.)) and incubation for 15 minutes with shaking. After centrifugation (14,000×g at 4° C. for 15 minutes), the supernatant is collected and the protein concentration is measured and adjusted using RIPA^+ buffer. […] The proteins are transferred to PVDF membrane (Millipore), detected with the primary antibodies (including anti-active ERK; anti-p-Tyr clone 4G10, Upstate; anti-TH; anti-DAT, sigma, anti-β-tubulin, etc.) and visualized with the SuperSignal™ West Pico chemiluminescent kit (Pierce Biotechnology, Rockford, Ill.). The intensity of bands is quantified using ImageQuant™ 5.2 (Amersham). […]
It was determined that A9 could activate ERK while characterizing the transactivation of receptor tyrosine kinases by the dopamine D2 receptor.

CC(C)(C)c1cc(C=C(C#N)C#N)cc(C(C)(C)C)c1O [A9, tyrphostin A9]
Concentration at which maximum dopamine uptake response is reached [1]: 100 nM
Dopamine uptake [1]: increased dopamine uptake in primary rat SNc neuron cultures in a concentration-dependent manner; also recorded: stimulated dopamine uptake increase
Protective effect against neurotoxin MPP+ [2]: robust protective effect; also recorded: neuroprotection against MPP^+
Effect of repeated freeze/thaw cycles on activity ([3]; in organic solvents): do not affect its activity
Time for which activity is kept in organic solvents ([3]; room temperature, activity by ERK activation in NS20Y cells): 6 months
solubility (Solubility of A9 stock; aqueous with cosolvent or surfactant or cyclodextrin, kinetic from dmso stock, stock diluted in saline, read-out: Final concentration in saline): ≥ 10 mg/mL
solubility (Solubility of A9 stock; organic solvent or mixture, in ethanol, methylene chloride, or DMSO, read-out: Solubility of stock): ≤ 25 mg/mL
ERK activation (ERK): but not in HEK293
D2 receptor-induced activation of ERK (ERK; A9 pretreatment): prevented D2 receptor-induced activation of ERK
